Experimental data reported in patent US8232107B2, “Methods for measuring the metabolism of neurally derived biomolecules in vivo” (Washington University in St. Louis, priority 2005, dated 2012).

Key:
[1] = in vivo, iv, 2 mg/kg
Text: All human studies were approved by the Washington University Human Studies Committee and the General Clinical Research Center (GCRC) Advisory Committee. Informed consent was obtained from all participants. All participants were screened to be in good general health and without neurologic disease. Seven men and three women (23-45 yrs old) participated. Each research participant was admitted to the GCRC at 7:00 AM after an overnight fast from 8 PM the preceding evening. The GCRC Research Kitchen provided meals (60% carbohydrate, 20% fat, 20% protein, low leucine diet during labeled leucine infusion) at 9 AM, 1 PM, and 6 PM and the participant had free access to water. All food and water consumption was recorded during the admission by nursing staff and the GCRC kitchen. One intravenous catheter was placed in an antecubital vein and used to administer the stable isotope labeled leucine solution. A second intravenous catheter was placed in the contra-lateral antecubital vein to obtain blood samples. A subarachnoid catheter was inserted at the L3-L4 interspace via a Touhy needle, so that CSF could be sampled without performing multiple lumbar punctures (Williams, 2002, Neurology 58: 1859-1860). […]
Every hour, 10 ml of plasma was obtained through the other IV. […] To obtain amino acid sequence and abundance data, these parent ions were subjected to collision induced dissociation (CID 28%), and tandem MS analysis of their doubly-charged species ([M+2H]^+2; m/z 663.6 and 666.6) were scanned in selected reaction monitoring mode (SRM), so that the y- and b-series ions generated were used for isotope ratio quantitation (FIG. 6). […]
Plasma and CSF samples were analyzed to determine the amount of labeled leucine present in each fluid (FIG. 9). The labeled to unlabeled leucine ratios for plasma and CSF ^13C6-leucine were quantified using capillary gas chromatography-mass spectrometry (GC-MS) (Yarasheski et al. 2005, Am J. Physiol. Endocrinol. Metab. 288: E278-284; Yarasheski et al. 1998 Am J. Physiol. 275: E577-583), which is more appropriate than LC-ESI-MS for low mass amino acid analysis.

[2] = Measurement of ApoE metabolism in vivo (CSF, WUE4 affinity purification, nanoLC tandem MS); set-up: species or system human
Text: As depicted in FIG. 13, human ApoE was immunoprecipitated from CSF or astrocyte cell culture media using WUE4, a specific anti-human ApoE monoclonal (anti-ApoE) antibody. An immortalized astrocyte cell line from transgenic mice expressing human ApoE was used to produce ^13C6-labeled leucine ApoE standards. Immunoprecipitated ApoE was then digested with sequencing-grade trypsin. Released peptides were separated by nano liquid chromatography and quantitated by tandem mass spectrometry (nanoLC-MS). The efficiency and selectivity of the immuno-affinity purification was confirmed by analyzing the samples following a general proteomics LC-MS method. Results from Bioworks™3.2, using the SEQUEST algorithm, confirmed ApoE was the predominant protein present in samples, and identified the most abundant peptides containing leucines, which could be used for quantitation. Due to the 6 Da mass shift of a ^13C6-labeled leucine, unlabeled peptides were distinguishable from labeled peptides. Tandem MS was performed on the peptides of interest, and the percent of ^13C-leucine incorporated into ApoE was determined by calculating the ratio of labeled product ions to unlabeled product ions. The excellent linearity from 0-25% labeling (R^2=0.99) indicates the method developed to measure ApoE is sensitive, specific, and accurate.
CSF was collected every hour for 36 hours.

[3] = In vivo labeling of Aβ in human CSF, immunoprecipitation-MS/MS, calculation of FSR and FCR
Protocol: Informed consent was obtained from all participants. […] CSF samples were obtained hourly throughout the study.
Aβ metabolic labeling curves of three participants are presented in FIG. 8. ^13C6-labeled leucine was infused through one IV at a rate of 1.9 (circles), 2.5 (triangles), or 2.5 (squares) mg/kg/hr for 12 (circles, triangles) or 9 (squares) hours. Each hour, 10 ml of plasma and 6 ml of CSF were obtained through the other IV and the lumbar catheter, respectively. There was a 5-hour lag time before significant rises in labeled Aβ was detected. This was followed by a 9 (squares) or 12 (triangles or circles) hour increase in labeled Aβ until it plateaued for another 5 hours.
For each hourly sample of CSF collected, the ratio of labeled to unlabeled Aβ was determined by immunoprecipitation-MS/MS, as described above. The MS/MS ions from ^13C6-labeled Aβ17-28 were divided by the MS/MS ions from unlabeled Aβ17-28 to produce a ratio of labeled Aβ to unlabeled Aβ (see TTR formula, above). There was no measurable labeled Aβ for the first 4 hours, followed by an increase from 5 to 13 hours. There was no significant change from 13 to 24 hours. The labeled Aβ decreased from 24 to 36 hours.
[formula] Where (Et2-Et1)Aβ/(t2-t1) is defined as the slope of labeled Aβ during labeling and the Precursor E is the ratio of labeled leucine. FSR, in percent per hour, was operationally defined as the slope of the linear regression from 6 to 15 hours divided by the average of CSF ^13C6-labeled leucine level during infusion (see FIG. 11A-C). For example, a FSR of 7.6% per hour means that 7.6% of total Aβ was produced each hour.
The fractional clearance rate (FCR) was calculated by fitting the slope of the natural logarithm of the clearance portion of the labeled Aβ curve, according to the following formula: […]
The FCR was operationally defined as the natural log of the labeled Aβ from 24 to 36 hours (FIG. 11D-F). For example, a FCR of 8.3% per hour means that 8.3% of total Aβ was cleared each hour. The average FSR of Aβ for these 6 healthy young participants was 7.6%/hr and the average FCR was 8.3%/hr (FIG. 12). These values were not statistically different from each other.

CC(C)C[C@H](N)C(=O)O [^13C6-leucine]
steady state level of 13C6-leucine in CSF [1]: 10%
steady state level of 13C6-leucine in plasma [1]: 14%
time to reach steady state levels in plasma and CSF [1]: within an hour

ApoE: human apolipoprotein E, CNS-derived, purified from CSF
fractional synthesis rate (FSR) of ApoE ([2]; CSF, young normal controls (FIG. 15 and 16)): approximately 2 percent per hour
time in which approximately half of the ApoE pool is synthesized in the human brain ([2]; from FSR): about 24 hours

Aβ: amyloid-β protein, CNS derived biomolecule whose metabolism is measured
average fractional synthesis rate (FSR) of Aβ ([3]; 6 healthy young participants): 7.6 %/hr
average fractional clearance rate (FCR) of Aβ ([3]; hours 24 to 36, 3 participants): 8.3 %/hr
initial period with no measurable labeled Aβ ([3]; mean of n=6 (FIG. 10)): 4 h
lag time before significant rises in labeled Aβ ([3]; three participants (FIG. 8)): 5 h
